# System: récepteurs des benzodiazépines
# Assay: In vivo measurement of binding to benzodiazepine receptors, method of Goeders and Kuhar
# Text: La mesure in vivo de la liaison aux récepteurs des benzodiazépines a été effectuée selon la méthode décrite par Goeders N.E. et Kuhar M.J. Life, Sciences (1985) 37, 345. TABLEAU II
row,SMILES,liaison in vivo DE 50 mg/kg IP
1,"CCc1cc(-c2ncn3c2CN(C)C(=O)c2ccccc2-3)on1 [Exemple 8, 5,6-dihydro 5-méthyl 6-oxo 3-(3-éthylisoxazol-5-yl) 4H-imidazo [1,5-a] [1,4]-benzodiazépine]","> 3,0 mg/kg"
2,"CN1Cc2c(-c3cc(C4CC4)no3)ncn2-c2ccccc2C1=O [Exemple 5, 3-(3-cyclopropylisoxazol-5-yl) 5,6-dihydro 5-méthyl 6-oxo-4H-imidazo [1,5-a] [1,4]-benzodiazépine]","2,0 mg/kg"
3,"Cc1cc(-c2ncn3c2CN(C)C(=O)c2ccccc2-3)on1 [Exemple 7, 5,6-dihydro 5-méthyl 6-oxo 3-(3-méthylisoxazol-5-yl) 4H-imidazo [1,5-a] [1,4]-benzodiazépine]","0,62 mg/kg"

# Reference: patent publication EP0423032A2, “Process for the preparation of isoxazolyl and isothiazolyl imidazobenzodiazepines, new derivatives thus obtained, their use as medicaments and compositions containing them” (ROUSSEL-UCLAF, priority 1989, dated 1991)
